# Experiments:
# [1] = Inhibition of APP (unknown origin); parameters: species or system Homo sapiens
# Cytochrome P450 2C19 = Cytochrome P450 2C19 (Homo sapiens, UniProt P33261); experiment: Inhibition of CYP2C19 (unknown origin) up to 10 uM; format: ADME
# Liver [2] = experiment: Stability in human liver microsomes; format: ADME, microsome
# Dipeptidyl peptidase 4 [3] = target: Dipeptidyl peptidase 4 (Rattus norvegicus, UniProt P14740); experiment: Inhibition of Wistar rat plasma DPP4
# Dipeptidyl peptidase 4 [4] = target: Dipeptidyl peptidase 4 (Mus musculus, UniProt P28843); experiment: Inhibition of ob/ob mouse plasma DPP4
# Dipeptidyl peptidase 4 [5] = target: Dipeptidyl peptidase 4 (Homo sapiens, UniProt P27487); experiment: Inhibition of human plasma DPP4
# [6] = target: T1, Angiotensin-converting enzyme (Rattus norvegicus, UniProt P47820); experiment: Inhibition of Wistar rat plasma ACE
# T1 sequence (P47820 whole entry): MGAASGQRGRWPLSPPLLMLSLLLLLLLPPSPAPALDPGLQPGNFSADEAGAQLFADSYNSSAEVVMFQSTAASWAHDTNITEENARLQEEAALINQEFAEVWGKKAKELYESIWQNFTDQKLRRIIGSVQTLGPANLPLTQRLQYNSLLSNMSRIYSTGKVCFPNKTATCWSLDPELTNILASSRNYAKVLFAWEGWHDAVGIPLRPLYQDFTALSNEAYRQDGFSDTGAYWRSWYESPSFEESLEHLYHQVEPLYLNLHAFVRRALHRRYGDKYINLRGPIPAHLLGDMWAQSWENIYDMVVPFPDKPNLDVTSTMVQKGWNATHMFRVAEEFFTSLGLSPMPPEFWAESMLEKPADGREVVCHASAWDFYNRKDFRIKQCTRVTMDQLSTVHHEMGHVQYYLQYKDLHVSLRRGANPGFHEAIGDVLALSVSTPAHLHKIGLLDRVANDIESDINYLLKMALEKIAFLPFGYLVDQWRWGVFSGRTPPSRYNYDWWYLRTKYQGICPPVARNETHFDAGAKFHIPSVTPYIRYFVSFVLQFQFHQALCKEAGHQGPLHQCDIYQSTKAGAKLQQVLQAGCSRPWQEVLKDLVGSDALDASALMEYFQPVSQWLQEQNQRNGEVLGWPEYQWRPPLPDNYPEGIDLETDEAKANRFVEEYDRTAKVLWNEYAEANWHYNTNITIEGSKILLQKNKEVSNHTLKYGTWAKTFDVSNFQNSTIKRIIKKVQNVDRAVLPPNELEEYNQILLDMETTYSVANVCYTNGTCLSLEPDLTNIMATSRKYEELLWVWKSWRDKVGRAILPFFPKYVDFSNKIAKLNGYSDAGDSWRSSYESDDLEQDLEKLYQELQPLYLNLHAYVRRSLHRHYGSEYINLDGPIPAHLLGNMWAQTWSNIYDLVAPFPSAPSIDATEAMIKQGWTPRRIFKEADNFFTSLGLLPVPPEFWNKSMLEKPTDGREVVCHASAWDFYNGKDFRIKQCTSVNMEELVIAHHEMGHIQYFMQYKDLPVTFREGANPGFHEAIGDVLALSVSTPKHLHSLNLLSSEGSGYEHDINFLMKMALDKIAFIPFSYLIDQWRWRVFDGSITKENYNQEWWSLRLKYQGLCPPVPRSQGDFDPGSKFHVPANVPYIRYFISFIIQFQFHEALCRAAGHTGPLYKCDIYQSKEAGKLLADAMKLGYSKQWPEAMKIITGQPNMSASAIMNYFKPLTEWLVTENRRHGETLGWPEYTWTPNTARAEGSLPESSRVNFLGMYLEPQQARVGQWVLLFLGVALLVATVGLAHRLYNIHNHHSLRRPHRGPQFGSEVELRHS
# [7] = target: Angiotensin-converting enzyme (Homo sapiens, UniProt P12821); experiment: Inhibition of human plasma ACE
# [8] = Plasma protein binding in human; format: ADME, cell-free; details: read-out: PPB (converted)
# [9] = Plasma protein binding in mouse; format: ADME, cell-free; details: read-out: PPB (converted)
# [10] = Plasma protein binding in rat; format: ADME, cell-free; details: read-out: PPB (converted)
# Dipeptidyl peptidase 8 = Dipeptidyl peptidase 8 (Homo sapiens, UniProt Q6V1X1); experiment: Inhibition of DPP8 (unknown origin)
# Sequence of Dipeptidyl peptidase 8 (Q6V1X1 whole entry): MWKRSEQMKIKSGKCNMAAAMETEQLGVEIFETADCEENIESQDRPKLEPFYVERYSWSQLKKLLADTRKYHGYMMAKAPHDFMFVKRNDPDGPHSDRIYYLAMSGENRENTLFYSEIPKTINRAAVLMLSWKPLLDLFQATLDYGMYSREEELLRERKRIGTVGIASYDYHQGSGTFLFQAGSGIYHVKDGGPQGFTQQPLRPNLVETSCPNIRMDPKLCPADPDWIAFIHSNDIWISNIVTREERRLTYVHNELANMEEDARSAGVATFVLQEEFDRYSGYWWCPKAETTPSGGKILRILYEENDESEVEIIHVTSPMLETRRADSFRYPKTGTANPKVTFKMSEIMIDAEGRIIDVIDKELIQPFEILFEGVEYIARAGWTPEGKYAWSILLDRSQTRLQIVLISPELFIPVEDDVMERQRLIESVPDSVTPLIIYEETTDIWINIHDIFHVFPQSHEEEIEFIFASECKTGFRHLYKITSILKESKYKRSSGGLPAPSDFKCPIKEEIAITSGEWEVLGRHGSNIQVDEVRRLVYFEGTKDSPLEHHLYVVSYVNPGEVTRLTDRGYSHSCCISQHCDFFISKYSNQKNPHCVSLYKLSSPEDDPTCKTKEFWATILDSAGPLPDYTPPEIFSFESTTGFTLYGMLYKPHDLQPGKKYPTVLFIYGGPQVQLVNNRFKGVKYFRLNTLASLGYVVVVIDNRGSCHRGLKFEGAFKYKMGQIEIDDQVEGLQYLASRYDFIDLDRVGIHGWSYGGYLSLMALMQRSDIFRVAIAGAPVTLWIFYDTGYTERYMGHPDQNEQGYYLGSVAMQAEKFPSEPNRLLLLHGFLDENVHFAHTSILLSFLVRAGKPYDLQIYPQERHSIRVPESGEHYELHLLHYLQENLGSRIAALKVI
# Dipeptidyl peptidase 9 = Dipeptidyl peptidase 9 (Homo sapiens, UniProt Q86TI2); experiment: Inhibition of DPP9 (unknown origin)
# Sequence of Dipeptidyl peptidase 9 (Q86TI2 whole entry): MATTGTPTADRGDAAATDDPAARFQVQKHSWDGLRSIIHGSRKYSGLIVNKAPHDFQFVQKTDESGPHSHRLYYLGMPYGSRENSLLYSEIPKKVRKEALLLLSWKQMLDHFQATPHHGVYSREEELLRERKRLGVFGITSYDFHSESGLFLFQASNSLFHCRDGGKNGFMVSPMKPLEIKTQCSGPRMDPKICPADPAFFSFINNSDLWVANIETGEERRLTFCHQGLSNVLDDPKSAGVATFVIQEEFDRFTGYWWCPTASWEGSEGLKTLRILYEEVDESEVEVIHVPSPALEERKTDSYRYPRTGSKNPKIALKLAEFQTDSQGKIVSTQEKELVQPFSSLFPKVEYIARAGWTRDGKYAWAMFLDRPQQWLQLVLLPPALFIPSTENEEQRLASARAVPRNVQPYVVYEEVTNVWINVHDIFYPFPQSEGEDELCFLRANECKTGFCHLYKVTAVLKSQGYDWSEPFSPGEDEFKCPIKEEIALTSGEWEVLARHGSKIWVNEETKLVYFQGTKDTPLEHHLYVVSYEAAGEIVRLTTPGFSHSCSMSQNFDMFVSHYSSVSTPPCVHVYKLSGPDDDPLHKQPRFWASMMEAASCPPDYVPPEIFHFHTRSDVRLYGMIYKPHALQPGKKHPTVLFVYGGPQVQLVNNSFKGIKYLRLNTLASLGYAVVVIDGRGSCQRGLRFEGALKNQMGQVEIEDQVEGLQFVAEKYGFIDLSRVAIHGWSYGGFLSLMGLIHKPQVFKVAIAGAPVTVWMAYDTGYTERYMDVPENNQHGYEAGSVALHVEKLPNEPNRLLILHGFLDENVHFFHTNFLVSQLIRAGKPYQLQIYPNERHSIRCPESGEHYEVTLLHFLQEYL
# Dipeptidyl peptidase 2 = Dipeptidyl peptidase 2 (Homo sapiens, UniProt Q9UHL4); experiment: Inhibition of DPP2 (unknown origin)
# Neprilysin = Neprilysin (Homo sapiens, UniProt P08473); experiment: Inhibition of NEP (unknown origin)
# Aminopeptidase N = Aminopeptidase N (Homo sapiens, UniProt P15144); experiment: Inhibition of APN (unknown origin)
# Cytochrome P450 1A2 = target: T2, Cytochrome P450 1A2 (Homo sapiens, UniProt P05177); experiment: Inhibition of CYP1A2 (unknown origin) up to 10 uM; format: ADME
# T2 sequence (P05177 whole entry): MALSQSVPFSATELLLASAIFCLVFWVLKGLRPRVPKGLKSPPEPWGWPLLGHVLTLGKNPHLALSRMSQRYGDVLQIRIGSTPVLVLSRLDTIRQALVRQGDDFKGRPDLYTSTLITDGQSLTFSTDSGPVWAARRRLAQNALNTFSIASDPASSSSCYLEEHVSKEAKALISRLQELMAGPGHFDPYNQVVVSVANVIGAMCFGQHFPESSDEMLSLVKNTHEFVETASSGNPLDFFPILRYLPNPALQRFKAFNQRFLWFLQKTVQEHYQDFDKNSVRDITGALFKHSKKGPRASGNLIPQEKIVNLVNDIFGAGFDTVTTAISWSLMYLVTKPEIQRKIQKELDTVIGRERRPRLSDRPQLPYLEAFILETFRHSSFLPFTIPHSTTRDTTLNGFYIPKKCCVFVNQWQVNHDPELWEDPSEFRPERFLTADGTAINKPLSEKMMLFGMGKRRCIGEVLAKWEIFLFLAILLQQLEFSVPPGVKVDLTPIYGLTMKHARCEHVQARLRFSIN
# Cytochrome P450 2C9 = Cytochrome P450 2C9 (Homo sapiens, UniProt P11712); experiment: Inhibition of CYP2C9 (unknown origin) up to 10 uM; format: ADME
# Sequence of Cytochrome P450 2C9 (P11712 whole entry): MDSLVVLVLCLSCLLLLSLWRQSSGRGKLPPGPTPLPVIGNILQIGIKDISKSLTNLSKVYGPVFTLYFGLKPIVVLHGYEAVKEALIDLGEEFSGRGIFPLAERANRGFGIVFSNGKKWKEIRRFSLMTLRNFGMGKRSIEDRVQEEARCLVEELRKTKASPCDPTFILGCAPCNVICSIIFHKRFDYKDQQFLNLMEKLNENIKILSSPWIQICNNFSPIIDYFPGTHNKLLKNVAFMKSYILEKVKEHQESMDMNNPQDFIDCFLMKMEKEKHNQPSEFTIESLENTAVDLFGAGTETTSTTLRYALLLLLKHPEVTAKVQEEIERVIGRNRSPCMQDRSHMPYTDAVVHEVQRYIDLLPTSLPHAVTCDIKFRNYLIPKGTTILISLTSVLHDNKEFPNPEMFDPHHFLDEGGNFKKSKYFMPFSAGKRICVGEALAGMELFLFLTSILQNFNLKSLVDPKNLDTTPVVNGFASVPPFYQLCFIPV
# Cytochrome P450 2D6 = Cytochrome P450 2D6 (Homo sapiens, UniProt P10635); experiment: Inhibition of CYP2D6 (unknown origin) up to 10 uM; format: ADME
# Sequence of Cytochrome P450 2D6 (P10635 whole entry): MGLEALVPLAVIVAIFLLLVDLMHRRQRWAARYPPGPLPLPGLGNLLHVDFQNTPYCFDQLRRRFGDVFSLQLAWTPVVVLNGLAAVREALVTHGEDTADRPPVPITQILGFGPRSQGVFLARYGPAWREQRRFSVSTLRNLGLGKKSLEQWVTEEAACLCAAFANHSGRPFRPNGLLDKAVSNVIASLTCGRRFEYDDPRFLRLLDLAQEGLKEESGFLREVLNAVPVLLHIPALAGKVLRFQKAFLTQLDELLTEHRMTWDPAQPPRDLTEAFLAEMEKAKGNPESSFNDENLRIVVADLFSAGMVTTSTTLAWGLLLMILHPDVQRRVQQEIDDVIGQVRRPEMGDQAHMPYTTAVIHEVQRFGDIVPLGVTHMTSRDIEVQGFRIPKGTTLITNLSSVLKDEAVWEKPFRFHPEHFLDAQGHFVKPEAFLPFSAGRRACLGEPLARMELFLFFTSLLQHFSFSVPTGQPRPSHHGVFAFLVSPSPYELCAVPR
# Cytochrome P450 3A4 = Cytochrome P450 3A4 (Homo sapiens, UniProt P08684); experiment: Inhibition of CYP3A4 (unknown origin) up to 10 uM; format: ADME
# Sequence of Cytochrome P450 3A4 (P08684 whole entry): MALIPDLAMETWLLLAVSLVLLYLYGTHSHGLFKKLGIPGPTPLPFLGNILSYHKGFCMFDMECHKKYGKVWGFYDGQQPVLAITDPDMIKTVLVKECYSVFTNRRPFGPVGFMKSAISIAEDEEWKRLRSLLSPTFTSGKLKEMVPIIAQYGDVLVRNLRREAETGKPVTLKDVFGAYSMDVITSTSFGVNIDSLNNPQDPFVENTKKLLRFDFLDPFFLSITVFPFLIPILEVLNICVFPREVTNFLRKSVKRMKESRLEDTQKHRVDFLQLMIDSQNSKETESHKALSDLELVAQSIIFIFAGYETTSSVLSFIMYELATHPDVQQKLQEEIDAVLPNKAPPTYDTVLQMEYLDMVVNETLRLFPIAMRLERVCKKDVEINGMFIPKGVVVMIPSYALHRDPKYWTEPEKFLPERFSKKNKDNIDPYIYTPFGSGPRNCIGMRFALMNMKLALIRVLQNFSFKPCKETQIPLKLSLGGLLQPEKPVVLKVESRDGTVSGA
# Liver [11] = experiment: Stability in mouse liver microsomes; format: ADME, microsome
# Liver [12] = experiment: Stability in rat liver microsomes; format: ADME, microsome
# Liver [13] = experiment: Stability in dog liver microsomes; format: ADME, Canis lupus familiaris, microsome
# [14] = Tmax in Wistar rat plasma at 30 mg/kg, po; format: ADME, organism-based
# [15] = Cmax in Wistar rat plasma at 30 mg/kg, po; format: ADME, organism-based; parameters: dose 30 mg/kg, route oral
# [16] = AUC (0 to 24 hrs) in Wistar rat plasma at 30 mg/kg, po; format: ADME, organism-based; parameters: time < 24 hr, dose 30 mg/kg, route oral
# [17] = AUC (0 to infinity) in Wistar rat plasma at 30 mg/kg, po; format: ADME, organism-based; parameters: dose 30 mg/kg, time infinity, route oral
# Sequence of Cytochrome P450 2C19 (P33261 whole entry): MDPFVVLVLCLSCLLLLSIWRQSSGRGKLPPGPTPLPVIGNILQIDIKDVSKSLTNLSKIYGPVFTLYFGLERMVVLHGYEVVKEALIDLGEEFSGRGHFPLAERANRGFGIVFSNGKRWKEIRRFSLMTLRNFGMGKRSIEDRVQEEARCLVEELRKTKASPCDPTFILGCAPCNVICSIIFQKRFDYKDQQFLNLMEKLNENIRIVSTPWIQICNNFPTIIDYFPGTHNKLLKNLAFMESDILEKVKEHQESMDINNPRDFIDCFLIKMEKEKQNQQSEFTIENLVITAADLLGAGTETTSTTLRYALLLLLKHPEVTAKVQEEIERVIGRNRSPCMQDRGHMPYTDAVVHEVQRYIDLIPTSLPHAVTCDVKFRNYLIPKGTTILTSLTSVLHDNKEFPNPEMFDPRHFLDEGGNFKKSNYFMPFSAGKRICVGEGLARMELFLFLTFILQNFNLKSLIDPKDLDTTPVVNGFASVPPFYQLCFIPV
# Sequence of Dipeptidyl peptidase 4 (Rattus norvegicus, UniProt P14740) (P14740 whole entry): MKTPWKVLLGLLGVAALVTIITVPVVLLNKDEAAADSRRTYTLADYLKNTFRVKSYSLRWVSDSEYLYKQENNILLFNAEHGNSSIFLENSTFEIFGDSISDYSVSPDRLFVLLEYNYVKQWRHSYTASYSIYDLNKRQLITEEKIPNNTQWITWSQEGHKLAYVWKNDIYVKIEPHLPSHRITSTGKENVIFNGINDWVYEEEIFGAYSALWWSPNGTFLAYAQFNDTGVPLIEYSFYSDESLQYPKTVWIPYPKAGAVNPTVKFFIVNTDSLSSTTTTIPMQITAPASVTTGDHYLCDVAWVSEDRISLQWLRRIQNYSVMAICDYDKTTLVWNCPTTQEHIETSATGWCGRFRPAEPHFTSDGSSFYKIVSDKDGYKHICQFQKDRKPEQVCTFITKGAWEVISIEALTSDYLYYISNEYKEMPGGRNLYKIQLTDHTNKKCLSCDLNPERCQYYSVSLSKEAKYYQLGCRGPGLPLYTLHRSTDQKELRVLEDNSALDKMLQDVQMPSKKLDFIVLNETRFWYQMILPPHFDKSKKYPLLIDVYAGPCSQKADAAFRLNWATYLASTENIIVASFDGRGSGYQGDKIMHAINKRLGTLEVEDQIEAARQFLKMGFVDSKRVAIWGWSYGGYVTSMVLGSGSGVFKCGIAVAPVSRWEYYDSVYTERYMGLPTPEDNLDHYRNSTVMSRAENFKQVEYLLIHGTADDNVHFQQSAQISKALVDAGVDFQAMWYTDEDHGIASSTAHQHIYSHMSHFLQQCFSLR
Structure (SMILES),IC50 [1],inhibition (INH) (Cytochrome P450 2C19),Stability (Liver [2]),IC50 (Dipeptidyl peptidase 4 [3]),IC50 (Dipeptidyl peptidase 4 [4]),IC50 (Dipeptidyl peptidase 4 [5]),IC50 [6],IC50 [7],fraction unbound [8],fraction unbound [9],fraction unbound [10],IC50 (Dipeptidyl peptidase 8),IC50 (Dipeptidyl peptidase 9),IC50 (Dipeptidyl peptidase 2),IC50 (Neprilysin),IC50 (Aminopeptidase N),inhibition (INH) (Cytochrome P450 1A2),inhibition (INH) (Cytochrome P450 2C9),inhibition (INH) (Cytochrome P450 2D6),inhibition (INH) (Cytochrome P450 3A4),other results
CC[C@H](N[C@@H](CCc1ccccc1)C(=O)O)C(=O)N1C[C@@H](NC(=O)C[C@H](N)Cc2cc(F)c(F)cc2F)C[C@H]1C(=O)O,> 100 µM,Not Active,Stable,0.319 µM,0.488 µM,0.057 µM,0.024 µM,0.0086 to 0.0089 µM,0.636,0.129,0.403,69 µM,> 100 µM,> 100 µM,> 100 µM,> 100 µM,Not Active,Not Active,Not Active,Not Active,Stability (Liver [11]): Stable; Stability (Liver [12]): Stable; Stability (Liver [13]): Stable; Tmax [14]: 1.67 h; Cmax [15]: 550 ng/mL; AUC(0-t) at 24 h [16]: 2360 ng·h/mL; AUC(0-inf) [17]: 2860 ng·h/mL
CCC[C@H](N[C@@H](CCc1ccccc1)C(=O)O)C(=O)N1C[C@@H](NC(=O)C[C@H](N)Cc2cc(F)c(F)cc2F)C[C@H]1C(=O)O,> 100 µM,Not Active,Stable,1.23 µM,2.47 µM,0.067 µM,0.893 µM,0.051 µM,0.597,0.015,0.564,57 µM,> 100 µM,> 100 µM,> 100 µM,> 100 µM,Not Active,Not Active,Not Active,Not Active,Stability (Liver [11]): Stable; Stability (Liver [12]): Stable; Stability (Liver [13]): Stable; Tmax [14]: 3.3 h; Cmax [15]: 2500 ng/mL; AUC(0-t) at 24 h [16]: 21500 ng·h/mL; AUC(0-inf) [17]: 23500 ng·h/mL
CCCC[C@H](N[C@@H](CCc1ccccc1)C(=O)O)C(=O)N1C[C@@H](NC(=O)C[C@H](N)Cc2cc(F)c(F)cc2F)C[C@H]1C(=O)O,> 100 µM,Not Active,Stable,4.17 µM,7.17 µM,0.102 µM,2.8 µM,0.279 µM,0.327,0.014,0.583,> 100 µM,> 100 µM,> 100 µM,> 100 µM,> 100 µM,Not Active,Not Active,Not Active,Not Active,Stability (Liver [11]): Stable; Stability (Liver [12]): Stable; Stability (Liver [13]): Stable; Tmax [14]: 2 h; Cmax [15]: 1330 ng/mL; AUC(0-t) at 24 h [16]: 13900 ng·h/mL; AUC(0-inf) [17]: 16800 ng·h/mL
C[C@H](N[C@@H](CCc1ccccc1)C(=O)O)C(=O)N1C[C@@H](NC(=O)C[C@H](N)Cc2cc(F)c(F)cc2F)C[C@H]1C(=O)O,> 100 µM,Not Active,Stable,0.155 µM,0.217 µM,0.255 µM,0.334 µM,0.158 µM,0.707,0.51,0.58,27 µM,44 µM,> 100 µM,> 100 µM,> 100 µM,Not Active,Not Active,Not Active,Not Active,Stability (Liver [11]): Stable; Stability (Liver [12]): Stable; Stability (Liver [13]): Stable; Tmax [14]: 1.5 h; Cmax [15]: 260 ng/mL; AUC(0-t) at 24 h [16]: 610 ng·h/mL; AUC(0-inf) [17]: 1170 ng·h/mL
